Results on four molecules are retold here after patent US4623715A, “Novel peptides which are active on the central nervous system and have an action on the cholinergic system” (Hoechst Aktiengeselleschaft, priority 1984, dated 1986).

One test relates to rats. Briefly: Behavior (grooming, yawning, stretching; urge to groom and move) after i.c.v. administration. Format: in vivo. The settings on record: i.c.v. administration of 10 μg.
The test system of test [1] is cholinergic system (striatum of rats). Briefly: Biochemical effects in the striatum (acetylcholine and choline content) after s.c. administration; action on the cholinergic system. In kind it is in vivo. The settings on record: for Biochemical effects in the striatum: ACH (acetylcholine) / Biochemical effects in the striatum: CH (choline): s.c., at the dose printed in the same line (E2), arrow up/down = content increased/reduced; for Biochemical effects in the striatum: Dose mcg/kg s.c.; (rats): s.c. dose in rats at which the ACH/CH effects of the same line are reported. As for the experimental part:
At the same time, cholinergic mechanisms in the central nervous system (CNS) are influenced. In the striatum of rats, the choline content is reduced and the acetylcholine content is increased following subcutaneous administration of 10 μg.
The action of the compounds according to the invention on the cholinergic system is determined by a method described in J. Neurochem. 20 (1973), pages 1-8.

For test [2] the test system is unchanged. Described as above. In kind it is in vivo. The settings on record: s.c. administration of 1 μg.
The test system of test [3] is acetylcholine conversion in various areas of the brain. The settings on record: intracerebroventricular (i.c.v.) administration; cited from earlier work.
[4] abbreviates: rats, subcutaneous administration of 10 μg.

As for `COC(=O)[C@H](Cc1ccccc1)NC(=O)[C@H](CCCCN)NC(=O)OCc1ccccc1` [IV, Z--Lys--Phe--OMe], the “urge to groom and move” value with rats is “cause the urge to groom and move”. For the same molecule, in test [1] (setting [4]), the “acetylcholine content in the striatum” value is recorded as “increased” and the “choline content in the striatum” value was “reduced”.

“Z--D--Lys--Phe--NH--(CH2)8 --NH2.2HCl [V]”: in test [1] (rats), the “Biochemical effects in the striatum: ACH (acetylcholine)” value is recorded as “.uparw” and the “Biochemical effects in the striatum: CH (choline)” value is listed as “.dwnarw”. Also, in test [1], the “Biochemical effects in the striatum: Dose mcg/kg s.c.; (rats)” value was 1.0 µg/kg. For the same molecule, the “acetylcholine content in the striatum” value in test [2] (same actions as IV at 10 μg (increased)) is given as “the same actions”. Also, in test [2] (same actions as IV at 10 μg (reduced)), the “choline content in the striatum” value was “the same actions”.

Regarding “ACTH (SYSMEHFRWGKPVGKKRRPVKVYPNGAEDESAEAFPLEF; Corticotropin; UniProt P01189 138-176, looked up) [peptide hormone cited from the literature]”, the “acetylcholine conversion in various areas of the brain” value in test [3] was “acceleration”.

In the case of ACTH--(1-24) [VI, reference compound], in test [1] (rats), the “Biochemical effects in the striatum: ACH (acetylcholine)” value is reported as “.dwnarw” and the “Biochemical effects in the striatum: CH (choline)” value is “.uparw”. Also, the “Biochemical effects in the striatum: Dose mcg/kg s.c.; (rats)” value in test [1] lay in the range of 0.01 to 1 µg/kg. Further, the “acetylcholine conversion in various areas of the brain” value in test [3] is given as “acceleration”.
